Patent US20130123222A1, “Synergistic Anti-Cancer Activity of SR16388 with Anti-Mitotic Drugs” (SRI INTERNATIONAL, INC., priority 2011, published 2013)

Assays:
KM12 = assay: 11×7 synergism hit rate; format: cell-based; settings: Colon Cancer KM12, combination with SR16388
Excerpt: (§1) SR16388 was synthesized in house.
(§2) Within the same type of cancer cells, some cell lines have more synergistic hits than others. Melanoma and breast cancer cell lines had the highest hit rate.

ACHN = assay: 11×7 synergism hit rate; format: cell-based; settings: Renal Cancer ACHN, combination with SR16388
Excerpt: as §1, §2

OVCAR3 = assay: 11×7 synergism hit rate; format: cell-based; settings: Ovarian Cancer OVCAR3, combination with SR16388
Excerpt: as §1, §2

LOXIMVI = assay: 11×7 synergism hit rate; format: cell-based; settings: Melanoma LOXIMVI, combination with SR16388
Excerpt: as §1, §2

MDAMB231 = assay: 11×7 synergism hit rate; format: cell-based; settings: Breast Cancer MDAMB231, combination with SR16388
Excerpt: as §1, §2

SKMEL28 = assay: 11×7 synergism hit rate; format: cell-based; settings: Melanoma SKMEL28, combination with SR16388
Excerpt: as §1, §2

SNB19 = assay: 11×7 synergism hit rate; format: cell-based; settings: CNS Cancer SNB19, combination with SR16388
Excerpt: as §1, §2

PCS = assay: 11×7 synergism hit rate; format: cell-based; settings: Prostate Cancer PCS, combination with SR16388
Excerpt: as §1, §2

MALME = assay: 11×7 synergism hit rate; format: cell-based; settings: Melanoma MALME, combination with SR16388
Excerpt: as §1, §2

COLO205 = assay: 11×7 synergism hit rate; format: cell-based; settings: Colon Cancer COLO205, combination with SR16388
Excerpt: as §1, §2

SKOV3 = assay: 11×7 synergism hit rate; format: cell-based; settings: Ovarian Cancer SKOV3, combination with SR16388
Excerpt: as §1, §2

MDAMB468 = assay: 11×7 synergism hit rate; format: cell-based; settings: Breast Cancer MDAMB468, combination with SR16388
Excerpt: as §1, §2

NCIH460 = assay: 11×7 synergism hit rate; format: cell-based; settings: NSCLC NCIH460, combination with SR16388
Excerpt: as §1, §2

BT549 = assay: 11×7 synergism hit rate; format: cell-based; settings: Breast Cancer BT549, combination with SR16388
Excerpt: as §1, §2

HOP62 = assay: 11×7 synergism hit rate; format: cell-based; settings: NSCLC HOP62, combination with SR16388
Excerpt: as §1, §2

NCIH522 = assay: 11×7 synergism hit rate; format: cell-based; settings: NSCLC NCIH522, combination with SR16388
Excerpt: as §1, §2

IGROV1 = assay: 11×7 synergism hit rate; format: cell-based; settings: Ovarian Cancer IGROV1, combination with SR16388
Excerpt: as §1, §2

HCT116 = assay: 11×7 synergism hit rate; format: cell-based; settings: Colon Cancer HCT116, combination with SR16388
Excerpt: as §1, §2

SKMEL5 = assay: 11×7 synergism hit rate; format: cell-based; settings: Melanoma SKMEL5, combination with SR16388
Excerpt: as §1, §2

SF295 = assay: 11×7 synergism hit rate; format: cell-based; settings: CNS Cancer SF295, combination with SR16388
Excerpt: as §1, §2

[1] = test system: panel of 48 to 60 cell lines; assay: 5×4 combination screen with SR16388, CellTiter-Glo viability; synergy by pattern recognition; settings: for no effect (number of cell lines) / synergy (number of cell lines) / % synergy: in combination with SR16388, 5x4-T1; for no effect (number of cell lines) / synergy (number of cell lines): pattern recognition, of 60 cell lines incl. no data; for % synergy: share of cell lines with data
Method: Cells were treated with compounds alone or in combination for three days and CellTiter-Glo® Luminescent Cell Viability Assay (Promega Corp.) was used as the endpoint to measure cell viability.
Cells were cultured in DMEM with 10% fetal bovine serum and used between passage 2 and passage 20. Cells were harvested on Day-1 (FIG. 1A) and re-supspended to the corresponding seeding density and seeded with Wellmate (ThermoFisher) to 384 plates (BD or GBO).
40 mM Compound stocks in 100% DMSO were made. Master plates were made with Janus (PerkinElmer), then further diluted and added to the cell plates with Matrix Platemate (Thermo) on Day 0.
CellTiter-Glo® Luminescent Cell Viability Assay (Promega Corp.) was used to measure ATP as an indicator of viable cells on Day 3 using Envision (PerkinElmer) and back up reader Analyst HT (MDS) and Gen5 (BioTek).
Single point, 5×4 checkque board platemap was used in the initial screening.
Relative Luminescent Units (RLU) were plotted against corresponding drug concentrations and fitted with standard four parameter sigmoidal curve with custom coded R program or Calcusyn (Biosoft, Cambridge, UK).

[2] = test system: panel of 48 to 60 cell lines; assay: 5×4 combination screen with SR16388; synergism hit rate by algorithm (Z score); format: cell-based; settings: in combination with SR16388, all 20 (5×4) dose combinations
Method: as §1
5) A “combination score” was assigned to each specific combination (Ca1b1x): C=1 if Za1b1x>3*SD and C=0 if Za1b1x≦3*SD score);
6) Hit rate of each combination was calculated by comparing the sum of the combination scores of all 20 (5×4) dose combinations with all cell lines to the total number of data points of that specific combination;
7) Hit rate were ranked from high to low to identify potential synergistic combinations.

SMILES	% Hit rate (KM12)	% Hit rate (ACHN)	% Hit rate (OVCAR3)	% Hit rate (LOXIMVI)	% Hit rate (MDAMB231)	% Hit rate (SKMEL28)	% Hit rate (SNB19)	% Hit rate (PCS)	% Hit rate (MALME)	% Hit rate (COLO205)	% Hit rate (SKOV3)	% Hit rate (MDAMB468)	% Hit rate (NCIH460)	% Hit rate (BT549)	% Hit rate (HOP62)	% Hit rate (NCIH522)	% Hit rate (IGROV1)	% Hit rate (HCT116)	% Hit rate (SKMEL5)	% Hit rate (SF295)	also measured
CC[C@]1(O)C[C@@H]2CN(CCc3c([nH]c4ccccc34)[C@@](C(=O)OC)(c3cc4c(cc3OC)N(C)[C@H]3[C@@](O)(C(=O)OC)[C@H](OC(C)=O)[C@]5(CC)C=CCN6CC[C@]43[C@@H]65)C2)C1 [Vinblastine]	1%	3%	4%	1%	1%	8%	12%	1%	0%	12%	8%	3%	16%	1%	0%	4%	0%	6%	5%	0%	
CC(=O)O[C@H]1C(=O)[C@@]2(C)[C@H]([C@H](OC(=O)c3ccccc3)[C@]3(O)C[C@H](OC(=O)[C@H](O)[C@@H](NC(=O)c4ccccc4)c4ccccc4)C(C)=C1C3(C)C)[C@]1(OC(C)=O)CO[C@@H]1C[C@@H]2O [Paclitaxel]	10%	14%	8%	13%	21%	35%	27%	0%	14%	17%	18%	8%	35%	3%	1%	10%	18%		12%	8%	interaction with SR16388 in the screen of 30 cancer therapeutic agents [1]: Synergistic anti-proliferation; no effect (number of cell lines) [1]: 18; synergy (number of cell lines) [1]: 40; % synergy [1]: 69%
CC(=O)O[C@@]12CO[C@@H]1C[C@H](O)[C@@]1(C)C(=O)[C@H](O)C3=C(C)[C@@H](OC(=O)[C@H](O)[C@@H](NC(=O)OC(C)(C)C)c4ccccc4)C[C@@](O)([C@@H](OC(=O)c4ccccc4)[C@H]21)C3(C)C [Docetaxel]	6%	4%	8%	8%	10%	31%	18%	3%	6%	35%	12%	6%	31%	5%	1%	8%	3%	18%	10%	8%	% hit/combo [2]: 0.58%; interaction with SR16388 in the screen of 30 cancer therapeutic agents [1]: Synergistic anti-proliferation; no effect (number of cell lines) [1]: 51; synergy (number of cell lines) [1]: 7; % synergy [1]: 12%
CC[C@]1(O)C[C@H]2CN(CCc3c([nH]c4ccccc34)[C@@](C(=O)OC)(c3cc4c(cc3OC)N(C=O)[C@H]3[C@@](O)(C(=O)OC)[C@H](OC(C)=O)[C@]5(CC)C=CCN6CC[C@]43[C@@H]65)C2)C1 [Vincristine]	6%	8%	3%	5%	17%	22%	27%	1%	14%	14%	19%	5%	19%	9%	0%	10%	8%	6%	14%	21%	% hit/combo [2]: 2.08%; interaction with SR16388 in the screen of 30 cancer therapeutic agents [1]: Synergistic anti-proliferation; no effect (number of cell lines) [1]: 19; synergy (number of cell lines) [1]: 23; % synergy [1]: 55%
